Reference: ChEMBL document CHEMBL1157964, “Spasmolytic effects of nonprenylated rotenoid constituents of Boerhaavia diffusa roots” (2006)
Active and inactive are the calls of the source. The rule behind the calls is not given here.

What was measured:
Ileum [1] = test: Antispasmodic activity in guinea pig ileum assessed as inhibition of acetylcholine-induced contraction at 30 ug/mL; format: functional; settings: Cavia porcellus
Ileum [2] = test: Antispasmodic activity in guinea pig ileum assessed as inhibition of acetylcholine-induced contraction at 10 uM; format: functional, Cavia porcellus; design: scale not given: the % may be the effect or the level left
Ileum [3] = test: Antispasmodic activity in guinea pig ileum assessed as inhibition of acetylcholine-induced contraction at 1 uM; format: functional, Cavia porcellus; design: scale not given: the % may be the effect or the level left

Structure (SMILES) | Emax at 30 µg/mL (Ileum [1]) [%] | other results
COc1cc2oc3c(c(=O)c2c(O)c1C)-c1cccc(O)c1OC3O (stereo not given) [9-O-METHYL-4-HYDROXYBOERAVINONE B] | 100 | –
COc1cc(O)c2c(c1)O[C@@H]1COc3c(O)cccc3[C@@]1(O)C2=O | 19.4 | –
COc1ccccc1-c1coc2cc(O)c(C)c(O)c2c1=O | 36.8 | –
CC(=O)C1=C(O)[C@@H]2[C@H]3c4c[nH]c5cccc(c45)C[C@H]3C(C)(C)N2C1=O [CYCLOPIAZONIC ACID] | – | Activity (Ileum [2]): 52.3%
COC1Oc2cc(O)ccc2-c2c1oc1cc(O)c(C)c(O)c1c2=O (stereo not given) | – | Activity (Ileum [1]): inactive
COc1cc(O)c2c(=O)c3c(oc2c1)C(OC)Oc1c(O)cccc1-3 (stereo not given) [BOERAVINONE G] | 60 | –
COc1cc2oc3c(c(=O)c2c(O)c1C)-c1cccc(O)c1OC3OC (stereo not given) | – | Activity (Ileum [1]): inactive
Cc1c(O)cc2oc3c(=O)oc4cc(O)ccc4c3c(=O)c2c1O [BOERAVINONE F] | 50 | –
O=c1c2c(oc3cc(O)cc(O)c13)C(O)Oc1ccccc1-2 (stereo not given) | – | Activity (Ileum [1]): inactive
COc1cc2c(c(O)c1C)C(=O)[C@]1(O)c3cccc(O)c3OC[C@H]1O2 | – | Activity (Ileum [1]): inactive
COC(=O)C1=C(C)NC(C)=C(C(=O)OC)C1c1ccccc1[N+](=O)[O-] [NIFEDIPINE] | – | Activity (Ileum [3]): 47.3%
COc1ccc(Cc2nccc3cc(OC)c(OC)cc23)cc1OC [PAPAVERINE] | 72.3 | –
COc1cc2c(c(O)c1OC)C(=O)[C@]1(O)c3ccccc3OC[C@H]1O2 [COCCINEONE E] | 25.2 | –
COc1cc2oc3c(c(=O)c2c(O)c1O)-c1ccccc1OC3O (stereo not given) [9-O-METHYL-10-HYDROXYCOCCINEONE B] | 36.1 | –
Cc1c(O)cc2oc3c(c(=O)c2c1O)-c1ccc(O)cc1OC3O (stereo not given) [BOERAVINONE E] | 100 | –
